Data published in PubChem BioAssay AID330 (DTP/NCI, 2004).
Several values for one entry are separate records, joined by “and”; a condition that tells them apart may be missing. Equal values may be shown once. Inconclusive results and toxic doses are left out.

Tested on: P388 leukemia ip, CD2F1 mice, survival T/C
Assay: NCI In Vivo Anticancer Drug Screen. Data for tumor model P388 Leukemia (intraperitoneal) in CD2F1 (CDF1) mice
Conditions: endpoint: median survival time, higher = longer survival
Method in brief: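 Mice carrying the transplanted tumor received test compound or vehicle. Survival was recorded in each group, and the value is the treated-group measurement divided by that of the vehicle-treated control group.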

[1] = dose: 60.0 mg/kg/injection, schedule: Q01DX005 (ip), vehicle: saline with Tween-80
[2] = dose: 120.0 mg/kg/injection, schedule: Q01DX005 (ip), vehicle: saline with Tween-80
[3] = dose: 240.0 mg/kg/injection, schedule: Q01DX005 (ip), vehicle: saline with Tween-80
[4] = dose: 50.0 mg/kg/injection, schedule: Q01DX005 (ip), vehicle: saline with Tween-80
[5] = dose: 100.0 mg/kg/injection, schedule: Q01DX005 (ip), vehicle: saline with Tween-80
[6] = dose: 200.0 mg/kg/injection, schedule: Q01DX005 (ip), vehicle: saline with Tween-80
[7] = dose: 50.0 mg/kg/injection, schedule: Q01DX005 (ip), vehicle: saline
[8] = dose: 6.25 mg/kg/injection, schedule: Q01DX009 (ip), vehicle: saline with Tween-80
[9] = dose: 12.5 mg/kg/injection, schedule: Q01DX009 (ip), vehicle: saline with Tween-80
[10] = dose: 25.0 mg/kg/injection, schedule: Q01DX009 (ip), vehicle: saline with Tween-80
[11] = dose: 12.5 mg/kg/injection, schedule: Q01DX009 (ip), vehicle: saline
[12] = dose: 25.0 mg/kg/injection, schedule: Q01DX009 (ip), vehicle: saline
[13] = dose: 50.0 mg/kg/injection, schedule: Q01DX009 (ip), vehicle: saline
[14] = dose: 100.0 mg/kg/injection, schedule: Q01DX009 (ip), vehicle: saline
[15] = dose: 200.0 mg/kg/injection, schedule: Q01DX009 (ip), vehicle: saline
[16] = dose: 12.5 mg/kg/injection, schedule: Q01DX005 (ip), vehicle: Klucel (hydroxypropylcellulose) (HPC)
[17] = dose: 25.0 mg/kg/injection, schedule: Q01DX005 (ip), vehicle: Klucel (hydroxypropylcellulose) (HPC)
[18] = dose: 50.0 mg/kg/injection, schedule: Q01DX005 (ip), vehicle: Klucel (hydroxypropylcellulose) (HPC)
[19] = dose: 100.0 mg/kg/injection, schedule: Q01DX005 (ip), vehicle: saline
[20] = dose: 200.0 mg/kg/injection, schedule: Q01DX005 (ip), vehicle: saline
[21] = dose: 30.0 mg/kg/injection, schedule: Q01DX005 (ip), vehicle: saline with Tween-80
[22] = dose: 100.0 mg/kg/injection, schedule: Q01DX005 (ip), vehicle: Klucel (hydroxypropylcellulose) (HPC)
[23] = dose: 200.0 mg/kg/injection, schedule: Q01DX005 (ip), vehicle: Klucel (hydroxypropylcellulose) (HPC)

With O=c1c(C(=Nc2ccccc2)c2ccccc2)c[nH]n1-c1ccccc1 the T/C [1] was 105 % of control, the T/C [2] was 105 % of control and the T/C [3] was 105 % of control.

For c1cnn([B-]2(n3cccn3)n3ccc[n+]3[B-](n3cccn3)(n3cccn3)n3ccc[n+]32)c1, the T/C [1] was 102 % of control, the T/C [2] was 102 % of control and the T/C [3] was 100 % of control.

Cc1cc(=O)[nH]c(=O)n1CCCN(C)CCCn1c(C)cc(=O)[nH]c1=O was tested, and the T/C [1] was 99 % of control, the T/C [2] was 103 % of control and the T/C [3] was 102 % of control.

CC(C)c1ccccc1[S+]1OC(C)(C)c2ccccc21 (stereo unspecified) was tested, and the T/C (dose: 50.0 mg/kg/injection, schedule: Q01DX009 (ip), vehicle: Klucel (hydroxypropylcellulose) (HPC)) was 107 % of control, the T/C (dose: 100.0 mg/kg/injection, schedule: Q01DX009 (ip), vehicle: Klucel (hydroxypropylcellulose) (HPC)) was 103 % of control and the T/C (dose: 200.0 mg/kg/injection, schedule: Q01DX009 (ip), vehicle: Klucel (hydroxypropylcellulose) (HPC)) was 95 % of control.

In the case of S=c1[nH]c(=S)c2[nH]cnc2[nH]1, the T/C [4] is reported as 102 % of control, the T/C [5] is reported as 100 % of control and the T/C [6] is reported as 100 % of control.

c1ccc(Cn2ccnc2)nc1 was tested, and the T/C (dose: 50.0 mg/kg/injection, schedule: Q04DX003 (ip), vehicle: saline) was 103 % of control, the T/C (dose: 100.0 mg/kg/injection, schedule: Q04DX003 (ip), vehicle: saline) was 100 % of control and the T/C (dose: 200.0 mg/kg/injection, schedule: Q04DX003 (ip), vehicle: saline) was 101 % of control.

c1cc2nc(-c3ccc4oc(C5=NCCN5)cc4c3)[nH]c2cc1C1=NCCN1 was tested, and the T/C (dose: 12.5 mg/kg/injection, schedule: Q01DX005 (ip), vehicle: saline) was 98 % of control, the T/C (dose: 25.0 mg/kg/injection, schedule: Q01DX005 (ip), vehicle: saline) was 113 % of control and the T/C [7] was 113 % of control and 118 % of control.

With Cc1cc(C)nc(NS(=O)(=O)c2ccc(NC(=O)c3cccnc3Nc3cccc(Cl)c3)cc2)n1 the T/C [1] was 105 % of control, the T/C [2] was 115 % of control and the T/C [3] was 112 % of control.

For CCCCCCCCC1OC1CCCCCCCC(=O)O (stereo unspecified), the T/C (dose: 3.13 mg/kg/injection, schedule: Q01DX009 (ip), vehicle: saline with Tween-80) was 112 % of control, the T/C [8] was 100 % of control and the T/C [9] was 103 % of control. For the same molecule, the T/C [10] was 95 % of control.

For CCC(=O)NC(Cc1ccsc1)C(=O)O (stereo unspecified), the T/C [11] was 103 % of control, the T/C [12] was 107 % of control and the T/C [13] was 98 % of control. The T/C [14] was 90 % of control and the T/C [15] was 90 % of control.

For COc1ccc2c(CCN(/C=C/C(C)=O)C(C)=O)cn(C(C)=O)c2c1, the T/C [16] was 109 % of control, the T/C [17] was 104 % of control and the T/C [18] was 100 % of control.

In the case of Cc1cc(C(C)(C)C)c(O)c(C(C)(C)C)c1, the T/C (dose: 100.0 mg/kg/injection, schedule: Q01DX009 (ip), vehicle: distilled water + Tween-80 + alcohol) is reported as 104 % of control, the T/C (dose: 200.0 mg/kg/injection, schedule: Q01DX009 (ip), vehicle: distilled water + Tween-80 + alcohol) is reported as 102 % of control and the T/C (dose: 400.0 mg/kg/injection, schedule: Q01DX009 (ip), vehicle: distilled water + Tween-80 + alcohol) is reported as 98 % of control.

For CCCC(OC)=C(C(=O)OCC)C(=O)OCC, the T/C [13] was 93 % of control, the T/C [14] was 94 % of control and the T/C [15] was 89 % of control.

In the case of C=C1C(=O)OC2CC3(C)OC3CC(O)/C(C)=C/C(OC(=O)C(C)C)C12 (stereo unspecified), the T/C (dose: 6.25 mg/kg/injection, schedule: Q01DX009 (ip), vehicle: saline) is reported as 110 % of control, the T/C [11] is reported as 112 % of control and the T/C [12] is reported as 121 % of control.

For CC(N)C(=O)NC(C(=O)O)C(C)C (stereo unspecified), the T/C [10] was 102 % of control, the T/C [7] was 93 % of control and the T/C (dose: 50.0 mg/kg/injection, schedule: Q01DX009 (ip), vehicle: saline with Tween-80) was 100 % of control. The T/C [19] was 100 % of control, the T/C (dose: 100.0 mg/kg/injection, schedule: Q01DX009 (ip), vehicle: saline with Tween-80) was 96 % of control and the T/C [20] was 98 % of control. For the same molecule, the T/C (dose: 200.0 mg/kg/injection, schedule: Q01DX009 (ip), vehicle: saline with Tween-80) was 111 % of control.

With COc1cc2c(cc1OC)C13CC[N+]4(C)CC5=CCOC6CC(=O)N2C1C6C5CC34[O-] (stereo unspecified) the T/C (dose: 60.0 mg/kg/injection, schedule: Q01DX005 (ip), vehicle: Klucel (hydroxypropylcellulose) (HPC)) was 99 % of control, the T/C (dose: 120.0 mg/kg/injection, schedule: Q01DX005 (ip), vehicle: Klucel (hydroxypropylcellulose) (HPC)) was 99 % of control and the T/C (dose: 240.0 mg/kg/injection, schedule: Q01DX005 (ip), vehicle: Klucel (hydroxypropylcellulose) (HPC)) was 111 % of control.

With CC(C)NCC(O)COc1ccc(CCOC(=O)CCc2ccc(C(O)(C(F)(F)F)C(F)(F)F)cc2)cc1 (stereo unspecified) the T/C [21] was 98 % of control, the T/C [1] was 96 % of control and the T/C [2] was 102 % of control.

With CC(=O)c1cc(-c2ccc3ccccc3c2)nc2ccccc12 the T/C [4] was 96 % of control, the T/C [5] was 94 % of control and the T/C [6] was 100 % of control.

O=C(O)C[N-]c1ccccc1.O=C(O)C[N-]c1ccccc1.[Ni+2] was tested, and the T/C [8] was 86 % of control and the T/C [9] was 91 % of control.

For Cn1c(-c2ccccc2)c(COC(=O)NC2CCCCC2)c(COC(=O)NC2CCCCC2)c1-c1ccc(Cl)cc1, the T/C (dose: 3.13 mg/kg/injection, schedule: Q01DX009 (ip), vehicle: distilled water + Tween-80) was 109 % of control, the T/C (dose: 6.25 mg/kg/injection, schedule: Q01DX009 (ip), vehicle: distilled water + Tween-80) was 105 % of control and the T/C (dose: 50.0 mg/kg/injection, schedule: Q01DX009 (ip), vehicle: distilled water + Tween-80) was 178 % of control. The T/C (dose: 75.0 mg/kg/injection, schedule: Q01DX009 (ip), vehicle: distilled water + Tween-80) was 175 % of control.

For COc1c(-c2ccccc2)oc2c(ccc3occc32)c1=O, the T/C [16] was 104 % of control, the T/C [17] was 99 % of control and the T/C [18] was 99 % of control. The T/C [22] was 87 % of control and the T/C [23] was 88 % of control.

Cc1nc2c(cnn2C)c(=O)n1C(C)C was tested, and the T/C [18] was 104 % of control, the T/C [22] was 112 % of control and the T/C [23] was 111 % of control.

In the case of O=C(CN1CCNCC1)N1CCCC1, the T/C [18] is reported as 106 % of control, the T/C [22] is reported as 97 % of control and the T/C [23] is reported as 98 % of control.

In the case of CS(=O)(=O)OC1C(COC(=O)c2ccccc2)OC(n2ccc(=O)[nH]c2=O)C1O (stereo unspecified), the T/C [7] is reported as 100 % of control, the T/C [19] is reported as 101 % of control and the T/C [20] is reported as 101 % of control.

For Cc1c(Cl)cccc1NC(=O)/C(Cl)=C1/Sc2ccccc2NC1=O, the T/C [1] was 96 % of control, the T/C [2] was 93 % of control and the T/C [3] was 91 % of control.

For C1CCC2(CC1)SSC1(CCCCC1)S2, the T/C (dose: 100.0 mg/kg/injection, schedule: Q04DX003 (ip), vehicle: other) was 109 % of control, the T/C (dose: 200.0 mg/kg/injection, schedule: Q04DX003 (ip), vehicle: other) was 109 % of control and the T/C (dose: 400.0 mg/kg/injection, schedule: Q04DX003 (ip), vehicle: other) was 113 % of control.

With O=C(CNC(=O)c1ccccc1)Nc1ccccc1 the T/C [12] was 115 % of control, the T/C [13] was 103 % of control and the T/C [14] was 94 % of control. The T/C [15] was 104 % of control.

With NC(=O)C(CCCCNc1c(C(=O)O)cc([N+](=O)[O-])cc1[N+](=O)[O-])NC(=O)c1ccccc1 (stereo unspecified) the T/C (dose: 60.0 mg/kg/injection, schedule: Q01DX005 (ip), vehicle: saline) was 100 % of control, the T/C (dose: 120.0 mg/kg/injection, schedule: Q01DX005 (ip), vehicle: saline) was 105 % of control and the T/C (dose: 240.0 mg/kg/injection, schedule: Q01DX005 (ip), vehicle: saline) was 100 % of control.

For Oc1ccc(Cl)cc1CN1CCN(Cc2cc(Cl)ccc2O)CC1, the T/C (dose: 15.0 mg/kg/injection, schedule: Q01DX005 (ip), vehicle: saline with Tween-80) was 100 % of control, the T/C [21] was 97 % of control and the T/C [1] was 89 % of control.

Cc1cc(C(=O)CSC(=S)SC(C)(C)C)ccc1Cl was tested, and the T/C [1] was 100 % of control, the T/C [2] was 96 % of control and the T/C [3] was 90 % of control.

For CCN(CCCN(C)C)c1ccc(/C=C/c2ccnc3ccccc23)cc1, the T/C [14] was 108 % of control.
